Laboratory results as given in ChEMBL document CHEMBL2321823, “Synthesis of novel analogs of cabergoline: improving cardiovascular safety by removing 5-HT2B receptor agonism” (ACS Med Chem Lett, 2013).

Experiments:
[1] = target: T1, 5-hydroxytryptamine receptor 2B (Homo sapiens, UniProt P41595); assay: (§1) Agonist activity at human 5-HT2B receptor transfected in CHO cell assessed as IP1 production incubated for 30 mins measured by HTRF detection method; format: cell-based; conditions: for Activity: human, cho, 0.5 h
[2] = target: T2, 5-HT2B receptor (Homo sapiens, UniProt P41595); assay: as §1; format: cell-based; conditions: human, CHO cells transfected with human 5-HT2B receptor
[3] = target: T1, 5-hydroxytryptamine receptor 2B; assay: Displacement of [125I](+/-)DOI from human 5-HT2B receptor transfected in CHO cell membrane after 60 mins by scintillation counting analysis; format: cell membranes
[4] = target: T1, 5-hydroxytryptamine receptor 2B; assay: Antagonist activity at human 5-HT2B receptor transfected in CHO cell assessed as decrease in 5-HT-induced IP1 production preincubated for 5 mins before 5-HT addition measured after 30 mins by HTRF detection method; format: functional, cell-based
[5] = target: T1, 5-hydroxytryptamine receptor 2B; assay: (§2) Partial agonist activity at human 5-HT2B receptor expressed in HEK293 cells assessed as intracellular calcium mobilization by FLIPR analysis; format: cell-based; conditions: hek293
[6] = target: T2, 5-HT2B receptor; assay: as §2; format: cell-based; conditions: HEK293 cells expressing human 5-HT2B receptor
[7] = target: 5-hydroxytryptamine receptor 2A (Homo sapiens, UniProt P28223); assay: Antagonist activity at human 5-HT2A receptor assessed as decrease in agonist-induced intracellular calcium mobilization preincubated for 10 mins prior to agonist addition measured by FLIPR analysis; format: functional, cell-based
[8] = target: D(2) dopamine receptor (Homo sapiens) (UniProt P14416); assay: Partial agonist activity at human D2 receptor transfected in HTLA cells measured after overnight incubation by luminescence counter analysis; format: cell-based
Chain of D(2) dopamine receptor (Homo sapiens) (P14416 whole entry): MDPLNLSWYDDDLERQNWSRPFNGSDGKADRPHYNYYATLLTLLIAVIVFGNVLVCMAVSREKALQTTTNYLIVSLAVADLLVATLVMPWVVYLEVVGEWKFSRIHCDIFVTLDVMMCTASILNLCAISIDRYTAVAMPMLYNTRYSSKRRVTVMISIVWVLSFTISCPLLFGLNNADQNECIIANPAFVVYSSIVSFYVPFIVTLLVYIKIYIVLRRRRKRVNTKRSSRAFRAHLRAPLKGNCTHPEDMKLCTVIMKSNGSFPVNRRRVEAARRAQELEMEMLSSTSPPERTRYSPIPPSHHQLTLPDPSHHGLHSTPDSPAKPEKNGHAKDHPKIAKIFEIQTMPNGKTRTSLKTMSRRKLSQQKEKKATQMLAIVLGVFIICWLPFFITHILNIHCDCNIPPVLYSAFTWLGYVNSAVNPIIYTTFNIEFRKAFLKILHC

T1 sequence (P41595 whole entry): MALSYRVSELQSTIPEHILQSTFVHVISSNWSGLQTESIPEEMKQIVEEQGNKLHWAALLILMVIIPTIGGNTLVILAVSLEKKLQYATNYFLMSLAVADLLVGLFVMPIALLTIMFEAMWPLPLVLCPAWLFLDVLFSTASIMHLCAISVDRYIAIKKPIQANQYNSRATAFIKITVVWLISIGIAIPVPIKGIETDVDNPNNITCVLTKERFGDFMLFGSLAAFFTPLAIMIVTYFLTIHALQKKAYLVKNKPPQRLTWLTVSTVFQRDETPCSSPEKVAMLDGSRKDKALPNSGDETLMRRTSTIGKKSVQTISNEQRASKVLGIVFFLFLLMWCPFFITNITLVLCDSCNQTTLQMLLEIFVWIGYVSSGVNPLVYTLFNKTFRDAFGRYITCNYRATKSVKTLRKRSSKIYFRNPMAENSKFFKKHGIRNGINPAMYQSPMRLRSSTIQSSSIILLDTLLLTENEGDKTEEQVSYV
T2 sequence (P41595 whole entry): as above
Chain of 5-hydroxytryptamine receptor 2A (P28223 whole entry): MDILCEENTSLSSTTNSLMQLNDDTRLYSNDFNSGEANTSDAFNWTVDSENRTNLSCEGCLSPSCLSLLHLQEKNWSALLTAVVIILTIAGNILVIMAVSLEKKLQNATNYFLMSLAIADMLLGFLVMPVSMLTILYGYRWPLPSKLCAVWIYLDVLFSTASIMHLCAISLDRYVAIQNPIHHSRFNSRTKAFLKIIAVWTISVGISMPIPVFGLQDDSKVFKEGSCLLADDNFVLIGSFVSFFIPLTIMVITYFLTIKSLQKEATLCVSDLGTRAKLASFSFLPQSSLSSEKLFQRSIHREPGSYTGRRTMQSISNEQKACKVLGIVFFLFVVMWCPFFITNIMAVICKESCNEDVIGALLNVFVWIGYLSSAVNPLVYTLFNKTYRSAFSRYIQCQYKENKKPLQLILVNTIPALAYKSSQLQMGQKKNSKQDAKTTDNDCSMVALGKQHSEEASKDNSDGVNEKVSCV

Row | Structure (SMILES) | EC50 [1] [nM] | Emax at 0.5 h [2] [%] | Ki [3] [nM] | IC50 [4] [nM] | Kb [4] [nM] | Activity [5] | Activity [1] | Emax [6] [%] | IC50 [7] [nM] | Emax [8] [%]
1 | C=CCN1C[C@H](C(=O)N(CCCN(C)C)C(=O)NCC)C[C@@H]2c3cccc4[nH]cc(c34)C[C@H]21 [CABERGOLINE] | 13 | 103 | 1.4 |  |  |  |  |  |  | 
2 | C=CCN1C[C@H](C(=O)N(CCCN2CCOCC2)C(=O)NCC)C[C@@H]2c3cccc4[nH]cc(c34)C[C@H]21 | 13 | 106 | 7.1 |  |  |  |  |  |  | 
3 | COC(OC)[C@@H]1C[C@@H]2c3cccc4c3c(cn4C)C[C@H]2N(C)C1 |  |  | 0.54 | 13 | 3.3 | Not Active | Not Active |  |  | 
4 | CN(C)CCCNC(=O)[C@@H]1C[C@@H]2c3cccc4c3c(cn4C)C[C@H]2N(C)C1 |  | < 12 | 0.97 | 37 | 9.3 |  |  | < 12 |  | 
5 | CCNC(=O)N(CCCN(C)C)C(=O)[C@@H]1C[C@@H]2c3cccc4c3c(cn4C)C[C@H]2N(C)C1 |  |  | 1 | 22 | 5.6 | Not Active | Not Active |  | 11500 | 50
